Experiment: xn = mol fraction of the nth substance listed
Conditions: 101.33 kPa

CCCCN(CCCC)CCCC + CC(C)O
viscosity [mPa·s]
Conditions | 298.15 K | 303.15 K | 308.15 K | 313.15 K | 318.15 K | 323.15 K
x1 = 0.0562 | 1.977 | – | 1.524 | – | 1.172 | –
x1 = 0.1016 | – | 1.679 | – | 1.292 | – | 1.009
x1 = 0.1175 | 1.876 | – | 1.46 | – | 1.132 | –
x1 = 0.1477 | – | 1.619 | – | 1.256 | – | 0.988
x1 = 0.1499 | 1.827 | – | 1.429 | – | 1.113 | –
x1 = 0.1897 | 1.772 | – | 1.394 | – | 1.092 | –
x1 = 0.1953 | – | 1.562 | – | 1.223 | – | 0.968
x1 = 0.224 | 1.728 | – | 1.367 | – | 1.075 | –
x1 = 0.2585 | – | 1.496 | – | 1.185 | – | 0.945
x1 = 0.2648 | 1.681 | – | 1.338 | – | 1.057 | –
x1 = 0.3035 | 1.641 | – | 1.313 | – | 1.041 | –
x1 = 0.3076 | – | 1.452 | – | 1.16 | – | 0.93
x1 = 0.3493 | 1.6 | – | 1.287 | – | 1.024 | –
x1 = 0.3539 | – | 1.415 | – | 1.139 | – | 0.918
x1 = 0.404 | 1.559 | – | 1.26 | – | 1.007 | –
x1 = 0.4061 | – | 1.379 | – | 1.118 | – | 0.906
x1 = 0.4528 | 1.528 | 1.351 | 1.24 | 1.101 | 0.994 | 0.898
x1 = 0.4899 | 1.508 | – | 1.226 | – | 0.985 | –
x1 = 0.5047 | – | 1.324 | – | 1.086 | – | 0.889
x1 = 0.5476 | – | 1.304 | – | 1.073 | – | 0.884
x1 = 0.5541 | 1.479 | – | 1.206 | – | 0.972 | –
x1 = 0.604 | 1.46 | – | 1.192 | – | 0.962 | –
x1 = 0.611 | – | 1.278 | – | 1.059 | – | 0.876
x1 = 0.6925 | 1.434 | – | 1.172 | – | 0.948 | –
x1 = 0.7023 | – | 1.247 | – | 1.042 | – | 0.866
x1 = 0.7872 | – | 1.221 | – | 1.027 | – | 0.859
x1 = 0.8457 | 1.399 | – | 1.145 | – | 0.927 | –
x1 = 0.9375 | – | 1.181 | – | 1.004 | – | 0.848
x1 = 0.9696 | – | 1.173 | – | 0.999 | – | 0.847

CCCCN(CCCC)CCCC + CCO
viscosity [mPa·s]
Conditions | 298.15 K | 303.15 K | 308.15 K | 313.15 K | 318.15 K | 323.15 K
x1 = 0.0992 | – | 1.26 | – | 1.084 | – | 0.951
x1 = 0.1034 | 1.393 | – | 1.17 | – | 1.011 | –
x1 = 0.1456 | 1.458 | – | 1.225 | – | 1.06 | –
x1 = 0.1561 | – | 1.334 | – | 1.151 | – | 1.015
x1 = 0.1969 | – | 1.357 | – | 1.174 | – | 1.035
x1 = 0.2099 | 1.508 | – | 1.267 | – | 1.094 | –
x1 = 0.2529 | 1.52 | 1.371 | 1.276 | 1.183 | 1.098 | 1.04
x1 = 0.2945 | – | 1.367 | – | 1.18 | – | 1.033
x1 = 0.3036 | 1.52 | – | 1.274 | – | 1.091 | –
x1 = 0.3531 | 1.511 | – | 1.265 | – | 1.078 | –
x1 = 0.3639 | – | 1.349 | – | 1.163 | – | 1.012
x1 = 0.3986 | 1.501 | 1.341 | 1.255 | 1.153 | 1.065 | 1
x1 = 0.4508 | 1.488 | 1.325 | 1.242 | 1.137 | 1.049 | 0.982
x1 = 0.4951 | 1.477 | – | 1.231 | – | 1.036 | –
x1 = 0.503 | – | 1.309 | – | 1.122 | – | 0.967
x1 = 0.5448 | 1.467 | – | 1.221 | – | 1.024 | –
x1 = 0.5537 | – | 1.294 | – | 1.11 | – | 0.954
x1 = 0.601 | 1.458 | – | 1.211 | – | 1.012 | –
x1 = 0.6426 | – | 1.267 | – | 1.09 | – | 0.936
x1 = 0.6648 | 1.448 | – | 1.199 | – | 0.998 | –
x1 = 0.7126 | 1.441 | – | 1.19 | – | 0.988 | –
x1 = 0.7382 | – | 1.249 | – | 1.067 | – | 0.915
x1 = 0.7934 | 1.424 | – | 1.173 | – | 0.967 | –
x1 = 0.8711 | – | 1.207 | – | 1.027 | – | 0.876
x1 = 0.9196 | – | 1.186 | – | 1.012 | – | 0.861
x1 = 0.9232 | 1.391 | – | 1.138 | – | 0.928 | –
x1 = 0.9604 | – | 1.176 | – | 1.002 | – | 0.851
